The values below come from ChEMBL document CHEMBL1146263, “Antibiotic-conjugated polyacrylate nanoparticles: new opportunities for development of anti-MRSA agents” (Bioorg Med Chem Lett, 2007).

In brackets after ≈: the same amount, converted by molar mass.

In data set [1] the test system is Serum. Description: Stability in human blood serum after 24 hrs. It counts as ADME, cell-free.
Data set [2] is described as follows: Chemical stability up to 60 degC after 24 hrs. It counts as physicochemical.
The nature of data set [3]: Toxicity in human dermal fibroblasts. It counts as cell-based. Particulars: fibroblast.
Data set [4] deals with Staphylococcus aureus. Nature of the data set: Antibacterial activity against Staphylococcus aureus ATCC 25923 after 24 hrs by agar dilution method. Format: functional. The conditions noted are these: ATCC 25923, 24 h.
Data set [5] deals with Staphylococcus aureus. Description: Antibacterial activity against methicillin-resistant Staphylococcus aureus ATCC 43300 after 24 hrs by agar dilution method. Format: functional. The conditions noted are these: ATCC 43300, 24 h. (Agar dilution tests growth on a series of plates holding different concentrations.)

By MIC is commonly meant the lowest concentration that inhibits growth of the organism. The low end stands for greater potency, the high end for weaker potency. Turning to `C=CC(=O)Oc1ccc(C2C(OC(=O)C=C)C(=O)N2SC)cc1` (stereo not given), the Activity result is on record as “Stable” in data set [1], “Stable” in data set [2] and “Non-toxic” in data set [3]. The MIC in data set [4] and in data set [5] was 128 µg/mL (≈ 384 µM) in each case.
With `C=CC(=O)OCCOC(=O)CCC(=O)OC1C(=O)N(SC)C1c1ccccc1Cl` (stereo not given), the Activity result in data set [1] is “Stable”; in data set [2], “Stable”; in data set [3], “Non-toxic”. In addition, the MIC in data set [4] and in data set [5] was 64 µg/mL (≈ 145 µM) throughout.
As for `C=CC(=O)Oc1ccc(C2C(OC)C(=O)N2SC)cc1` (stereo not given), the Activity result in data set [1] is reported as “Stable”; in data set [2] it was “Stable”; in data set [3] it was “Non-toxic”. For the same compound, the MIC in data set [4] and in data set [5] was 128 µg/mL (≈ 436 µM) throughout.
Regarding `C=CC(=O)OC1C(=O)N(SC)C1c1ccccc1Cl` (stereo not given), the Activity result in data set [1] is on record as “Stable”; in data set [2], “Stable”; in data set [3], “Non-toxic”. Further, the MIC in data set [4] and in data set [5] was 128 µg/mL (≈ 430 µM) throughout.
